Biological target: Cbl-b (36-427 aa truncated form, N-terminus Avi-tag) (Homo sapiens (Human), UniProt Q13191)
Experiment: Cbl-b binding: TR-FRET displacement of BODIPY-FL probe
Description: Compounds were assessed for binding activity to Cbl-b by their ability to compete with and displace a probe comprised of BODIPY-FL fluorophore conjugated to a Cbl-b inhibitor (see Example 54 in WO2020264398). In the assay, a 36-427 aa truncated form of Cbl-b with an N-terminus Avi-tag was incubated 20 mM HEPES pH 7.5, 150 mM NaCl, 0.01% Triton X-100, 0.1% BSA, 0.5 mM TCEP buffer with streptavidin-terbium (Cisbio). After one hour of incubation at room temperature, 1 uM each of fluorescent probe and compound were combined with the reaction mixture. Compounds with Cbl-b binding activity competitively displace the fluorophore tagged inhibitor thereby disrupting the FRET signal from the terbium-BODIPY-FL complex. The reaction mixtures were incubated for one additional hour at room temperature to allow for competition between inhibitor and candidate compounds to occur. The time resolved FRET (TR-FRET) signal was then read at 520/620 […] (excitation/emission) using a Spectramax M5e plate reader (Molecular Devices) to measure probe displacement. Compounds with Cbl-b binding activity had decreased FRET signal owing to disruption of the terbium-BODIPY-FL FRET complex. Standard methods in PRISM were used to calculate the compound IC50 values from the experimental data.

Sequence of Cbl-b (36-427 aa truncated form, N-terminus Avi-tag) (Q13191 36-427): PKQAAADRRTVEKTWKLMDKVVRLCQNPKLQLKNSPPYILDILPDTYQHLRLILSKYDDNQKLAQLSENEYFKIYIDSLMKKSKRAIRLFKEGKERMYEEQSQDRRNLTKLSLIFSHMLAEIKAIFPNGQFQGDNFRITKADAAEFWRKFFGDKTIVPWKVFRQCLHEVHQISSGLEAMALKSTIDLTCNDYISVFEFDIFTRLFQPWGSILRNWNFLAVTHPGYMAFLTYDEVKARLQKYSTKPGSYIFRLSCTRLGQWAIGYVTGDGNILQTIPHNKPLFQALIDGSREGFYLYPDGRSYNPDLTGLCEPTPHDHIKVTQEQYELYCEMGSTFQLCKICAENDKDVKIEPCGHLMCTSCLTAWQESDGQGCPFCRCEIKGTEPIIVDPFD

First: Cn1cnnc1CC1(c2cc(NCCC#N)nc(N3Cc4c(cc(CN5CC6(CCC6O)C5)cc4C(F)(F)F)C3=O)c2)COC1 (stereo not drawn) [Compound 189, 3-((6-(6-((5-hydroxy-2-azaspiro[3.3]heptan-2-yl)methyl)-1-oxo-4-(trifluoromethyl)isoindolin-2-yl)-4-(3-((4-methyl-4H-1,2,4-triazol-3-yl)methyl)oxetan-3-yl)pyridin-2-yl)amino)propanenitrile; trifluoroacetic acid]
Second: Cn1cnnc1CC1(c2cc(NCCC#N)nc(N3Cc4c(cc(CN5C[C@H]6CCC(O)C[C@H]6C5)cc4C(F)(F)F)C3=O)c2)COC1 (stereo partly drawn) [Compound 161, 3-{[6-(6-{[(3aR,7aS)-5-hydroxy-octahydroisoindol-2-yl]methyl}-1-oxo-4-(trifluoromethyl)-3H-isoindol-2-yl)-4-{3-[(4-methyl-1,2,4-triazol-3-yl)methyl]oxetan-3-yl}pyridin-2-yl]amino}propanenitrile; trifluoroacetic acid]
The IC50 of the first is higher: 5.01 to 20 nM for the first, 1 to 5 nM for the second. The second is the more potent here.

First: Cn1cnnc1CC1(c2cc(NCCC#N)nc(N3Cc4c(cc(C=O)cc4C(F)(F)F)C3=O)c2)COC1 [Compound 157, 3-({6-[6-formyl-1-oxo-4-(trifluoromethyl)-3H-isoindol-2-yl]-4-{3-[(4-methyl-1,2,4-triazol-3-yl)methyl]oxetan-3-yl}pyridin-2-yl}amino)propanenitrile]
Second: Cn1cnnc1CC1(c2cc(NCCC#N)nc(N3Cc4c(cc(CN5CC[C@@H](CN6CCOCC6)C5)cc4C(F)(F)F)C3=O)c2)COC1 [Compound 165, 3-[(4-{3-[(4-methyl-1,2,4-triazol-3-yl)methyl]oxetan-3-yl}-6-(6-{[(3R)-3-(morpholin-4-ylmethyl)pyrrolidin-1-yl]methyl}-1-oxo-4-(trifluoromethyl)-3H-isoindol-2-yl)pyridin-2-yl)amino]propanenitrile; trifluoroacetic acid]
The IC50 of the first is higher: 20 to 100 nM for the first, 5.01 to 20 nM for the second. The second is the more potent here.

`CCNc1cc([C@]2(c3nncn3C)C[C@H](C)C2)cc(N2Cc3c(cc(CN4CCC[C@H](C)C4)cc3S(C)(=O)=O)C2=O)n1` [Compound 172, 2-[6-(ethylamino)-4-[(1r,3s)-3-methyl-1-(4-methyl-1,2,4-triazol-3-yl)cyclobutyl]pyridin-2-yl]-4-methanesulfonyl-6-{[(3S)-3-methylpiperidin-1-yl]methyl}-3H-isoindol-1-one; trifluoroacetic acid] and `CCNc1cc(C2(Cc3nncn3C)COC2)cc(N2Cc3c(cc(CN4CCC[C@H](C)C4)cc3S(C)(=O)=O)C2=O)n1` [Compound 179, 2-[6-(ethylamino)-4-{3-[(4-methyl-1,2,4-triazol-3-yl)methyl]oxetan-3-yl}pyridin-2-yl]-4-methanesulfonyl-6-{[(3S)-3-methylpiperidin-1-yl]methyl}-3H-isoindol-1-one; formic acid] fall in the same range of IC50: 100 to 1000 nM for the first, 100 to 1000 nM for the second.

`C#CCN1CCN(c2cc(C3(Cc4nncn4C)COC3)cc(N3Cc4c(cc(CN5CCC[C@H](C)C5)cc4C(F)(F)F)C3=O)n2)CC1` [Compound 127, (S)-2-(4-(3-((4-methyl-4H-1,2,4-triazol-3-yl)methyl)oxetan-3-yl)-6-(4-(prop-2-yn-1-yl)piperazin-1-yl)pyridin-2-yl)-6-((3-methylpiperidin-1-yl)methyl)-4-(trifluoromethyl)isoindolin-1-one] and `C[C@H]1CCCN(Cc2cc3c(c(C(F)(F)F)c2)CN(c2cc(C4(Cc5nncn5C)COC4)cc(N4CCN(C(=O)Cc5nnn[nH]5)CC4)n2)C3=O)C1` [Compound 131, (S)-2-(6-(4-(2-(1H-tetrazol-5-yl)acetyl)piperazin-1-yl)-4-(3-((4-methyl-4H-1,2,4-triazol-3-yl)methyl)oxetan-3-yl)pyridin-2-yl)-6-((3-methylpiperidin-1-yl)methyl)-4-(trifluoromethyl)isoindolin-1-one] fall in the same range of IC50: 20 to 100 nM for the first, 20 to 100 nM for the second.

`CCNc1cc(C2(Cc3nncn3C)COC2)cc(N2Cc3c(cc(CN4CCC[C@H](C)C4)cc3[S+](C)[O-])C2=O)n1` (stereo partly drawn) [Compound 180, 2-[6-(ethylamino)-4-{3-[(4-methyl-1,2,4-triazol-3-yl)methyl]oxetan-3-yl}pyridin-2-yl]-4-methanesulfinyl-6-{[(3S)-3-methylpiperidin-1-yl]methyl}-3H-isoindol-1-one] and `C#CCNc1cc(C2(Cc3nncn3C)COC2)cc(N2Cc3c(cc(CN4CCC[C@H](C)C4)cc3C(F)(F)F)C2=O)n1` [Compound 109, (S)-2-(4-(3-((4-methyl-4H-1,2,4-triazol-3-yl)methyl)oxetan-3-yl)-6-(prop-2-yn-1-ylamino)pyridin-2-yl)-6-((3-methylpiperidin-1-yl)methyl)-4-(trifluoromethyl)isoindolin-1-one] fall in the same range of IC50: 100 to 1000 nM for the first, 100 to 1000 nM for the second.

Compared with `CCSc1cc(C2(Cc3nncn3C)COC2)cc(N2Cc3c(C(=O)O)cc(CN4CCC[C@H](C)C4)cc3C2=O)n1` [Compound 166, 2-[6-(ethylsulfanyl)-4-{3-[(4-methyl-1,2,4-triazol-3-yl)methyl]oxetan-3-yl}pyridin-2-yl]-6-{[(3S)-3-methylpiperidin-1-yl]methyl}-1-oxo-3H-isoindole-4-carboxylic acid; trifluoroacetic acid], `CCSc1cc(C2(Cc3nncn3C)COC2)cc(N2Cc3c(C(C)=O)cc(CN4CCC[C@H](C)C4)cc3C2=O)n1` [Compound 159, 4-acetyl-2-[6-(ethylsulfanyl)-4-{3-[(4-methyl-1,2,4-triazol-3-yl)methyl]oxetan-3-yl}pyridin-2-yl]-6-{[(3S)-3-methylpiperidin-1-yl]methyl}-3H-isoindol-1-one; trifluoroacetic acid] is higher in IC50: 5.01 to 20 nM for the first, 20 to 100 nM for the second. The first is the more potent here.

`CCSc1cc(C(CO)(CCl)Cc2nncn2C)cc(N2Cc3c(cc(CN4CCC[C@H](C)C4)cc3C(F)(F)F)C2=O)n1` (stereo partly drawn) [Compound 188, 2-(4-(1-chloro-3-hydroxy-2-((4-methyl-4H-1,2,4-triazol-3-yl)methyl)propan-2-yl)-6-(ethylthio)pyridin-2-yl)-6-(((S)-3-methylpiperidin-1-yl)methyl)-4-(trifluoromethyl)isoindolin-1-one; hydrochloric acid] and `CNCc1cc(C2(Cc3nncn3C)COC2)cc(N2Cc3c(cc(CN4CCC[C@H](C)C4)cc3C(F)(F)F)C2=O)n1` [Compound 104, 2-(4-{3-[(4-methyl-1,2,4-triazol-3-yl)methyl]oxetan-3-yl}-6-[(methylamino)methyl]pyridin-2-yl)-6-{[(3S)-3-methylpiperidin-1-yl]methyl}-4-(trifluoromethyl)-3H-isoindol-1-one; trifluoroacetic acid] fall in the same range of IC50: 100 to 1000 nM for the first, 100 to 1000 nM for the second.

Compared with `C[C@H]1CCCN(Cc2cc3c(c(C(F)(F)F)c2)CN(c2cc(C4(Cc5nncn5C)COC4)cc(NCCS)n2)C3=O)C1` [Compound 108, 2-(4-{3-[(4-methyl-1,2,4-triazol-3-yl)methyl]oxetan-3-yl}-6-[(2-sulfanylethyl)amino]pyridin-2-yl)-6-{[(3S)-3-methylpiperidin-1-yl]methyl}-4-(trifluoromethyl)-3H-isoindol-1-one], `CNCC(=O)Nc1cc(C2(Cc3nncn3C)COC2)cc(N2Cc3c(cc(CN4CCC[C@H](C)C4)cc3C(F)(F)F)C2=O)n1` [Compound 101, N-(4-{3-[(4-methyl-1,2,4-triazol-3-yl)methyl]oxetan-3-yl}-6-(6-{[(3S)-3-methylpiperidin-1-yl]methyl}-1-oxo-4-(trifluoromethyl)-3H-isoindol-2-yl)pyridin-2-yl)-2-(methylamino)acetamide; formic acid] is higher in IC50: 1 to 5 nM for the first, 5.01 to 20 nM for the second. The first is the more potent here.

Compared with `CCNc1cc(C2(Cc3nncn3C)COC2)cc(N2Cc3cc(CN4CCC[C@H](C)C4)sc3C2=O)n1` [Compound 149, 5-[6-(ethylamino)-4-{3-[(4-methyl-1,2,4-triazol-3-yl)methyl]oxetan-3-yl}pyridin-2-yl]-2-{[(3S)-3-methylpiperidin-1-yl]methyl}-4H-thieno[2,3-c]pyrrol-6-one], `CSc1cc(CN2CCC[C@H](C)C2)cc2c1CN(c1cc(C3(Cc4nncn4C)COC3)cc(NCCN=[N+]=[N-])n1)C2=O` [Compound 158, 2-{6-[(2-azidoethyl)amino]-4-{3-[(4-methyl-1,2,4-triazol-3-yl)methyl]oxetan-3-yl}pyridin-2-yl}-6-{[(3S)-3-methylpiperidin-1-yl]methyl}-4-(methylsulfanyl)-3H-isoindol-1-one; trifluoroacetic acid] is lower in IC50: 20 to 100 nM for the first, 1 to 5 nM for the second. The second is the more potent here.

`CCSc1cc(C2(Cc3nncn3C)COC2)cc(N2Cc3c(cc(CN4CCC[C@H](C)C4)cc3-c3nnn[nH]3)C2=O)n1` [Compound 167, 2-[6-(ethylsulfanyl)-4-{3-[(4-methyl-1,2,4-triazol-3-yl)methyl]oxetan-3-yl}pyridin-2-yl]-6-{[(3S)-3-methylpiperidin-1-yl]methyl}-4-(1H-1,2,3,4-tetrazol-5-yl)-3H-isoindol-1-one] and `Cn1cnnc1CC1(c2cc(NCCC#N)nc(N3Cc4c(cc(CN5CCN(c6ccccc6O)CC5)cc4C(F)(F)F)C3=O)c2)COC1` [Compound 184, 3-((6-(6-((4-(2-hydroxyphenyl)piperazin-1-yl)methyl)-1-oxo-4-(trifluoromethyl)isoindolin-2-yl)-4-(3-((4-methyl-4H-1,2,4-triazol-3-yl)methyl)oxetan-3-yl)pyridin-2-yl)amino)propanenitrile; trifluoroacetic acid] fall in the same range of IC50: 5.01 to 20 nM for the first, 5.01 to 20 nM for the second.

`C[C@H](Cc1nncn1C)c1cccc(NC(=O)c2ccc(C=O)c(C3CC3)n2)c1` [Compound 156, 6-cyclopropyl-5-formyl-N-{3-[(2R)-1-(4-methyl-1,2,4-triazol-3-yl)propan-2-yl]phenyl}pyridine-2-carboxamide] gave an IC50 of 20 to 100 nM.

Source: patent US20250304563A1, “ACTIVATORS OF EFFECTOR T CELLS” (Orum Therapeutics, Inc., priority 2022, published 2025)
